Test results published in patent publication US20090143279A1 (priority 2007, published 2009).
Where two headings read alike, the source gives them in different places.

Experiments:
nuOXPHOS transcripts = type: cell-based, mouse; settings: for nucOX (composite Z-score): normalized score vs mock-treated (DMSO) wells
OXPHOS gene expression = type: cell-based, mouse; settings: for GE-HTS (composite Z-score): normalized score vs mock-treated (DMSO) wells
[1] = tested on: mitochondrial membrane potential; type: cell-based, mouse; settings: for ΔΨm (composite Z-score): normalized score vs mock-treated (DMSO) wells
[2] = tested on: cellular dehydrogenase activity; settings: for MTT (composite Z-score): normalized score vs mock-treated (DMSO) wells
reactive oxygen species = type: cell-based, mouse; settings: for ROS (composite Z-score): normalized score vs mock-treated (DMSO) wells
cytochrome c = type: cell-based, mouse; settings: for cyt c (composite Z-score): normalized score vs mock-treated (DMSO) wells
cytochrome c, sequence (P62897 whole entry): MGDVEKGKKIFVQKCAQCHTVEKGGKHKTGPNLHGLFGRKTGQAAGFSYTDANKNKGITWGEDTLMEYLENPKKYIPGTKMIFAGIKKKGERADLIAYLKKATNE

mtOXPHOS transcripts = type: cell-based, mouse; settings: for mitoOX (composite Z-score): normalized score vs mock-treated (DMSO) wells
C2C12 myotubes = settings: for Viability (composite Z-score): normalized score vs mock-treated (DMSO) wells
[3] = normalized composite Z-score vs mock-treated (DMSO) wells, Conc 20 μM
[4] = composite Z-score vs mock-treated (DMSO) wells, concentration of each compound in μM
[5] = composite Z-score vs mock-treated (DMSO) wells, Conc 20 μM
[6] = composite Z-score vs DMSO, Conc 20 μM

Compound: CC(=O)O[C@H]1CC[C@]2(C)C(C[C@H](OC(C)=O)[C@]3(C)C4=CC(=O)OC(c5ccoc5)[C@@]4(C)CCC23)C1(C)C (stereo partly drawn)
- nucOX (composite Z-score) (nuOXPHOS transcripts; Conc 20 μM): −1.228
- GE-HTS (composite Z-score) (OXPHOS gene expression; Conc 20 μM): −1.124
- ΔΨm (composite Z-score) ([1]; Conc 20 μM): −0.208
- MTT (composite Z-score) ([2]; Conc 20 μM): −0.810
- ROS (composite Z-score) (reactive oxygen species; Conc 20 μM): 1.848
- cyt c (composite Z-score) (cytochrome c; Conc 20 μM): 0.161
- mitoOX (composite Z-score) (mtOXPHOS transcripts; Conc 20 μM): −0.653
- Viability (composite Z-score) (C2C12 myotubes; Conc 20 μM): −0.292

Compound: COc1ccc2c(c1)C1(C)CCC(=O)CC1CC2 (stereo not drawn) [listing 1 of 2 here]
- nucOX (composite Z-score) (nuOXPHOS transcripts; Conc 20 μM): 0.140
- GE-HTS (composite Z-score) (OXPHOS gene expression; Conc 20 μM): 0.129
- ΔΨm (composite Z-score) ([1]; Conc 20 μM): −0.939
- MTT (composite Z-score) ([2]; Conc 20 μM): −1.993
- ROS (composite Z-score) (reactive oxygen species; Conc 20 μM): 0.625
- cyt c (composite Z-score) (cytochrome c; Conc 20 μM): −0.239
- mitoOX (composite Z-score) (mtOXPHOS transcripts; Conc 20 μM): 0.061
- Viability (composite Z-score) (C2C12 myotubes; Conc 20 μM): −1.914

Compound: COc1ccc2c(c1)C1(C)CCC(=O)CC1CC2 (stereo not drawn) [listing 2 of 2 here]
- nucOX (nuOXPHOS transcripts; [3]): −0.582
- GE-HTS (OXPHOS gene expression; [3]): −0.632
- ΔΨm [1, 3]: −0.173
- MTT [2, 3]: −2.008
- ROS (reactive oxygen species; [3]): 1.860
- cyt c (cytochrome c; [3]): 0.380
- mitoOX (mtOXPHOS transcripts; [3]): −0.652
- Viability (C2C12 myotubes; [3]): −0.071

Compound: O=C(O)c1nc2cc(Cl)c(Cl)cc2nc1O
- nucOX (composite Z-score) (nuOXPHOS transcripts; Conc 20 μM): −0.313
- GE-HTS (composite Z-score) (OXPHOS gene expression; Conc 20 μM): −0.320
- ΔΨm (composite Z-score) ([1]; Conc 20 μM): −0.521
- MTT (composite Z-score) ([2]; Conc 20 μM): −0.131
- ROS (composite Z-score) (reactive oxygen species; Conc 20 μM): 0.666
- cyt c (composite Z-score) (cytochrome c; Conc 20 μM): 0.217
- mitoOX (composite Z-score) (mtOXPHOS transcripts; Conc 20 μM): −0.230
- Viability (composite Z-score) (C2C12 myotubes; Conc 20 μM): 0.109

Compound: O=C(O)CCC/C=C\CC1COC(C(F)(F)F)OC1c1ccccc1O (stereo not drawn)
- nucOX (nuOXPHOS transcripts; [4]): 0.169
- GE-HTS (OXPHOS gene expression; [4]): 0.344
- ΔΨm [1, 4]: −0.087
- MTT [2, 4]: −0.548
- ROS (reactive oxygen species; [4]): 0.713
- cyt c (cytochrome c; [4]): −0.437
- mitoOX (mtOXPHOS transcripts; [4]): 0.594
- Viability (C2C12 myotubes; [4]): −0.413

Compound: CC1(C)CC2C1CC[C@]1(CBr)CCC3C(CC(=O)O)C(=O)O[C@@]32C1 (stereo partly drawn)
- nucOX (nuOXPHOS transcripts; [3]): −0.612
- GE-HTS (OXPHOS gene expression; [3]): −1.029
- ΔΨm [1, 3]: −0.084
- MTT [2, 3]: −0.892
- ROS (reactive oxygen species; [3]): 0.604
- cyt c (cytochrome c; [3]): 0.551
- mitoOX (mtOXPHOS transcripts; [3]): −1.624
- Viability (C2C12 myotubes; [3]): −0.498

Compound: COC(=O)[C@@H]1OC(=O)C2OC23[C@@]1(C)CCC1[C@]2(C)C(C[C@@H](O)[C@]13C)C(C)(C)[C@H](OC(C)=O)C[C@@H]2OC(C)=O (stereo partly drawn)
- nucOX (nuOXPHOS transcripts; [5]): −0.485
- GE-HTS (OXPHOS gene expression; [5]): −0.376
- ΔΨm [1, 5]: −0.579
- MTT [2, 5]: −0.427
- ROS (reactive oxygen species; [5]): 0.177
- cyt c (cytochrome c; [5]): 1.004
- mitoOX (mtOXPHOS transcripts; [5]): −0.039
- Viability (C2C12 myotubes; [5]): 0.474

Compound: COC(=O)CCC(=O)O[C@H]1CC[C@@]2(C)[C@@H](CC[C@@H]3[C@@H]2C(=O)C(O)[C@]2(C)[C@@H]4[C@H](C[C@@H]32)O[C@]2(CC[C@@H](C)CO2)[C@H]4C)C1 (stereo partly drawn)
- nucOX (nuOXPHOS transcripts; [6]): 0.054
- GE-HTS (OXPHOS gene expression; [6]): −0.063
- ΔΨm [1, 6]: −0.760
- MTT [2, 6]: −1.387
- ROS (reactive oxygen species; [6]): 0.918
- cyt c (cytochrome c; [6]): −0.005
- mitoOX (mtOXPHOS transcripts; [6]): −0.217
- Viability (C2C12 myotubes; [6]): −0.315

Compound: COC(=O)c1cccc2cc(OC)c(OC)c(OC)c2c1=O
- nucOX (nuOXPHOS transcripts; [5]): 0.287
- GE-HTS (OXPHOS gene expression; [5]): 0.231
- ΔΨm [1, 5]: −0.254
- MTT [2, 5]: −2.317
- ROS (reactive oxygen species; [5]): 0.800
- cyt c (cytochrome c; [5]): −0.229
- mitoOX (mtOXPHOS transcripts; [5]): 0.117
- Viability (C2C12 myotubes; [5]): −0.836

Compound: 1,2alpha-epoxydeacetoxydihydrogedunin
- nucOX (nuOXPHOS transcripts; [3]): −1.080
- GE-HTS (OXPHOS gene expression; [3]): −0.921
- ΔΨm [1, 3]: 0.210
- MTT [2, 3]: −2.000
- ROS (reactive oxygen species; [3]): 3.350
- cyt c (cytochrome c; [3]): −0.224
- mitoOX (mtOXPHOS transcripts; [3]): −0.468
- Viability (C2C12 myotubes; [3]): 0.074

Compound: 2-hydroxy-5 (6)epoxy-tetrahydrocaryophyllene
- nucOX (nuOXPHOS transcripts; [3]): −0.447
- GE-HTS (OXPHOS gene expression; [3]): −0.347
- ΔΨm [1, 3]: −0.739
- MTT [2, 3]: −0.836
- ROS (reactive oxygen species; [3]): 0.074
- cyt c (cytochrome c; [3]): 0.236
- mitoOX (mtOXPHOS transcripts; [3]): −0.043
- Viability (C2C12 myotubes; [3]): −0.772

Compound: 3,7-epoxycaryophyllan-6-one
- nucOX (nuOXPHOS transcripts; [3]): −0.824
- GE-HTS (OXPHOS gene expression; [3]): −0.812
- ΔΨm [1, 3]: −1.003
- MTT [2, 3]: −0.698
- ROS (reactive oxygen species; [3]): 0.603
- cyt c (cytochrome c; [3]): 0.131
- mitoOX (mtOXPHOS transcripts; [3]): −0.595
- Viability (C2C12 myotubes; [3]): 0.433

Compound: 3-deoxo-3beta-acetoxydeoxydihydrogedunin
- nucOX (nuOXPHOS transcripts; [5]): −0.791
- GE-HTS (OXPHOS gene expression; [5]): −0.742
- ΔΨm [1, 5]: 1.215
- MTT [2, 5]: −1.633
- ROS (reactive oxygen species; [5]): 1.249
- cyt c (cytochrome c; [5]): 0.398
- mitoOX (mtOXPHOS transcripts; [5]): −0.559
- Viability (C2C12 myotubes; [5]): 1.066

Compound: 3-deoxo-3beta-hydroxymexicanolide 16-enol ether
- nucOX (nuOXPHOS transcripts; [5]): −0.247
- GE-HTS (OXPHOS gene expression; [5]): −0.203
- ΔΨm [1, 5]: −0.059
- MTT [2, 5]: −1.922
- ROS (reactive oxygen species; [5]): 1.279
- cyt c (cytochrome c; [5]): −0.040
- mitoOX (mtOXPHOS transcripts; [5]): −0.133
- Viability (C2C12 myotubes; [5]): 0.290

Compound: 3-nor-3-oxopanasinsan-6-ol
- nucOX (nuOXPHOS transcripts; [3]): −0.831
- GE-HTS (OXPHOS gene expression; [3]): −0.605
- ΔΨm [1, 3]: −0.006
- MTT [2, 3]: −0.492
- ROS (reactive oxygen species; [3]): 0.172
- cyt c (cytochrome c; [3]): 0.864
- mitoOX (mtOXPHOS transcripts; [3]): 0.004
- Viability (C2C12 myotubes; [3]): 0.209
